Measured values taken from ChEMBL document CHEMBL3885861, “Open TG-GATES”.

Species: Rattus norvegicus
Experiment: Open TG-GATES - Regimen: Single
Assay type: toxicity, organism-based, Sprague-Dawley
Parameters: regimen Single, gender Male, age 6 weeks
Conditions: in vivo, po, 10 mg/kg, route gavage, dose level Low; for APTT / Bas / Eos / Fbg / Hb / Ht / Lym / MCH / MCHC / MCV / Mono / Neu / PT / Plat / RBC / Ret / WBC: tissue Blood; for A/G / ALP / ALT / AST / BUN / CRE / Ca / Cl / DBIL / GLC / IP / K / LDH / Na / PL / RALB / TBIL / TC / TG / TP / gamma-GTP: tissue Plasma

With Cn1cc[nH]c1=S [METHIMAZOLE] the TERMINAL_BW (3 h) was 213.6 g, the APTT (3 h) was 21.5 s and the Bas (3 h) was 0%. The Eos (3 h) was 0.4%, the Fbg (3 h) was 291.6 mg/dL and the Hb (3 h) was 13.5 g/dL. The Ht (3 h) was 38.3%, the Lym (3 h) was 81.6% and the MCH (3 h) was 22.1 pg. The MCHC (3 h) was 35.3%, the MCV (3 h) was 62.6 fL and the Mono (3 h) was 2%. For the same molecule, the Neu (3 h) was 15.2%, the PT (3 h) was 15.4 s and the Plat (3 h) was 123.9 x10_4/uL. It also gave an RBC (3 h) of 611.8 x10_4/ul, a Ret (3 h) of 8.4% and a WBC (3 h) of 93.7 x10_2/uL. For the same molecule, the A/G (3 h) was 1.3, the ALP (3 h) was 1742.6 IU/L and the ALT (3 h) was 42 IU/L. It also gave an AST (3 h) of 72.4 IU/L, a BUN (3 h) of 13.8 mg/dL and a CRE (3 h) of 0.1 mg/dL. For the same molecule, the Ca (3 h) was 10.6 mg/dL, the Cl (3 h) was 106.6 meq/L and the DBIL (3 h) was 0 mg/dL. For the same molecule, the GLC (3 h) was 179 mg/dL, the IP (3 h) was 8.9 mg/dL and the K (3 h) was 4.2 meq/L. It also gave an LDH (3 h) of 206 IU/L, a Na (3 h) of 141.2 meq/L and a PL (3 h) of 141.4 mg/dL. The RALB (3 h) was 3 g/dL, the TBIL (3 h) was 0.006 mg/dL and the TC (3 h) was 77 mg/dL. The TG (3 h) was 74.4 mg/dL, the TP (3 h) was 5.4 g/dL and the gamma-GTP (3 h) was 1.2 IU/L. For the same molecule, the TERMINAL_BW (6 h) was 213.5 g, the APTT (6 h) was 20.7 s and the Bas (6 h) was 0%. For the same molecule, the Eos (6 h) was 1%, the Fbg (6 h) was 279.8 mg/dL and the Hb (6 h) was 13.6 g/dL. It also gave a Ht (6 h) of 38.5%, a Lym (6 h) of 78.2% and an MCH (6 h) of 21.7 pg. For the same molecule, the MCHC (6 h) was 35.2%, the MCV (6 h) was 61.8 fL and the Mono (6 h) was 2.2%. The Neu (6 h) was 18%, the PT (6 h) was 16.1 s and the Plat (6 h) was 103 x10_4/uL. For the same molecule, the RBC (6 h) was 624.6 x10_4/ul, the Ret (6 h) was 8.8% and the WBC (6 h) was 85.4 x10_2/uL. The A/G (6 h) was 1.2, the ALP (6 h) was 1761.8 IU/L and the ALT (6 h) was 44.2 IU/L. The AST (6 h) was 75.8 IU/L, the BUN (6 h) was 10.4 mg/dL and the CRE (6 h) was 0.1 mg/dL. The Ca (6 h) was 10.6 mg/dL, the Cl (6 h) was 106.4 meq/L and the DBIL (6 h) was 0 mg/dL. The GLC (6 h) was 185.2 mg/dL, the IP (6 h) was 9.3 mg/dL and the K (6 h) was 4.3 meq/L. For the same molecule, the LDH (6 h) was 182.4 IU/L, the Na (6 h) was 141 meq/L and the PL (6 h) was 124.8 mg/dL. For the same molecule, the RALB (6 h) was 2.8 g/dL, the TBIL (6 h) was 0.01 mg/dL and the TC (6 h) was 71.2 mg/dL. The TG (6 h) was 70.6 mg/dL, the TP (6 h) was 5.2 g/dL and the gamma-GTP (6 h) was 1 IU/L. For the same molecule, the TERMINAL_BW (9 h) was 199.1 g, the APTT (9 h) was 21.1 s and the Bas (9 h) was 0%. For the same molecule, the Eos (9 h) was 0.8%, the Fbg (9 h) was 299.4 mg/dL and the Hb (9 h) was 13.2 g/dL. The Ht (9 h) was 37.7%, the Lym (9 h) was 75.6% and the MCH (9 h) was 21.3 pg. It also gave an MCHC (9 h) of 35.2%, an MCV (9 h) of 60.6 fL and a Mono (9 h) of 1.6%. The Neu (9 h) was 21%, the PT (9 h) was 16.4 s and the Plat (9 h) was 124.5 x10_4/uL. For the same molecule, the RBC (9 h) was 622.2 x10_4/ul, the Ret (9 h) was 7.7% and the WBC (9 h) was 78.9 x10_2/uL. It also gave an A/G (9 h) of 1.2, an ALP (9 h) of 1423.4 IU/L and an ALT (9 h) of 38.4 IU/L. For the same molecule, the AST (9 h) was 71.2 IU/L, the BUN (9 h) was 10.8 mg/dL and the CRE (9 h) was 0.1 mg/dL. It also gave a Ca (9 h) of 10.5 mg/dL, a Cl (9 h) of 106.4 meq/L and a DBIL (9 h) of 0.002 mg/dL. The GLC (9 h) was 178.2 mg/dL, the IP (9 h) was 9.6 mg/dL and the K (9 h) was 4.5 meq/L. The LDH (9 h) was 154.8 IU/L, the Na (9 h) was 140.6 meq/L and the PL (9 h) was 133.2 mg/dL. The RALB (9 h) was 3 g/dL, the TBIL (9 h) was 0.01 mg/dL and the TC (9 h) was 76.8 mg/dL. It also gave a TG (9 h) of 65 mg/dL, a TP (9 h) of 5.5 g/dL and a gamma-GTP (9 h) of 1 IU/L. It also gave a TERMINAL_BW (24 h) of 223.9 g, an APTT (24 h) of 20.3 s and a Bas (24 h) of 0%. It also gave an Eos (24 h) of 0.8%, a Fbg (24 h) of 307.8 mg/dL and a Hb (24 h) of 14 g/dL. It also gave a Ht (24 h) of 39.8%, a Lym (24 h) of 79.8% and an MCH (24 h) of 21.7 pg. It also gave an MCHC (24 h) of 35.2%, an MCV (24 h) of 61.9 fL and a Mono (24 h) of 2.4%. It also gave a Neu (24 h) of 16.4%, a PT (24 h) of 15.6 s and a Plat (24 h) of 96.9 x10_4/uL. It also gave an RBC (24 h) of 643.8 x10_4/ul, a Ret (24 h) of 7.2% and a WBC (24 h) of 79.8 x10_2/uL. For the same molecule, the A/G (24 h) was 1.3, the ALP (24 h) was 2168.2 IU/L and the ALT (24 h) was 55.2 IU/L. It also gave an AST (24 h) of 75 IU/L, a BUN (24 h) of 15.6 mg/dL and a CRE (24 h) of 0.1 mg/dL. For the same molecule, the Ca (24 h) was 11 mg/dL, the Cl (24 h) was 106.2 meq/L and the DBIL (24 h) was 0 mg/dL. For the same molecule, the GLC (24 h) was 180.6 mg/dL, the IP (24 h) was 6.9 mg/dL and the K (24 h) was 4.2 meq/L. For the same molecule, the LDH (24 h) was 175 IU/L, the Na (24 h) was 142.2 meq/L and the PL (24 h) was 169.8 mg/dL. It also gave an RALB (24 h) of 3.1 g/dL, a TBIL (24 h) of 0.01 mg/dL and a TC (24 h) of 85.8 mg/dL. It also gave a TG (24 h) of 145.4 mg/dL, a TP (24 h) of 5.5 g/dL and a gamma-GTP (24 h) of 1 IU/L.
